Literature values, collected in US6388175B1, “Control of leaf scald disease” (priority 1995, dated 2002).
“Also recorded” adds a separate entry of the source.

Conditions: 100° C. for 30 min

In the case of albicidin, the Activity after heating is listed as “unaffected; also recorded: little activity is lost”.
